# Experimental data published in patent publication US12570695B2, “Bicyclic peptide ligands specific for EphA2” (priority 2019, dated 2026).
# Starred links: 1 amine or outer side, 2 acyl side, 3 side chain; linkers in the order of their positions; H or OH if unused. Positions of bridges follow the written chain, without caps; N, C: chain ends. Non-standard residues stand in square brackets, D forms with d. Residues, ends and D or L forms follow the SMILES beside them. TATA = O=C(CC[*:1])N1CN(C(=O)CC[*:2])CN(C(=O)CC[*:3])C1; Hyp = O=C(O)[C@@H]1C[C@@H](O)CN1; hArg = N=C(N)NCCCC[C@H](N)C(=O)O; 2Thi = N[C@@H](Cc1cccs1)C(=O)O; 3Thi = N[C@@H](Cc1ccsc1)C(=O)O
# Target: human EphA2 (Homo sapiens, UniProt P29317)
# Sequence (P29317 24-976): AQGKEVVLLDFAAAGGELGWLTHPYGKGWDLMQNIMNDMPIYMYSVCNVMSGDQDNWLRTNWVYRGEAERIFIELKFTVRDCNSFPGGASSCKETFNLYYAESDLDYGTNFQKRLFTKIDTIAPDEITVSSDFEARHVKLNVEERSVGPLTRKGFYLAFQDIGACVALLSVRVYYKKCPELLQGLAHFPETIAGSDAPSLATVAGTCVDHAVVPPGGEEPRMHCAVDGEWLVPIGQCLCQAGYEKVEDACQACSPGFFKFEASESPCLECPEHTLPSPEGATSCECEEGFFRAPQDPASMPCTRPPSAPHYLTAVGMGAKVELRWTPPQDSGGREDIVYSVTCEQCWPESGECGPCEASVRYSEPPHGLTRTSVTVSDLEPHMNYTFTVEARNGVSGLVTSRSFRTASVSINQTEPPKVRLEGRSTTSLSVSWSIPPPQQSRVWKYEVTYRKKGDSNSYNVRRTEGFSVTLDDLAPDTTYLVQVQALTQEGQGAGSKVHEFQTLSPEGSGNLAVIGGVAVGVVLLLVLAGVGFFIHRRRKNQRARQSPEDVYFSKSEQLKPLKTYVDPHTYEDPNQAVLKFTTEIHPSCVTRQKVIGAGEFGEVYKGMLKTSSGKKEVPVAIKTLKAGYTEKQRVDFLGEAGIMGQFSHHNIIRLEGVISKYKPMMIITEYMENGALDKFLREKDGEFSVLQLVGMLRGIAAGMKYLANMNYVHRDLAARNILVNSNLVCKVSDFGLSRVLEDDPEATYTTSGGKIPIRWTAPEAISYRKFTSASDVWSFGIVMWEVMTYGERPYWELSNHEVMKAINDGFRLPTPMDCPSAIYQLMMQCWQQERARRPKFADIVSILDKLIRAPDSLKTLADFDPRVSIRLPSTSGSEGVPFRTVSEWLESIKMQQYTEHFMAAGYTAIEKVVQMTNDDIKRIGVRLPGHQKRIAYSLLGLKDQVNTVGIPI
# Assay: biochemical
# Method: Peptides without a fluorescent tag were tested in competition with a peptide with a fluorescent tag and a known Kd.
# Peptides were diluted to an appropriate concentration in assay buffer as described in the direct binding assay with a maximum of 5% DMSO, then serially diluted 1 in 2. […] Measurements were conducted, however the gain was determined prior to the first measurement. Data analysis was in Systat Sigmaplot version 12.0 where the mP values were fit to a user defined cubic equation to generate a Ki value:
# “Lig”, “KLig” and “Prot” were all defined values relating to: fluorescent peptide concentration, the Kd of the fluorescent peptide and EphA2 concentration respectively.
row,Structure (SMILES),Ki
1,"CC(C)C[C@@H]1NC(=O)[C@@H]2CSCCC(=O)N3CN(CN(C3)C(=O)CCSC[C@H](NC(=O)[C@H](CC(=O)O)NC(=O)[C@H](CCCCNC(=N)N)NC(=O)[C@H](C)N)C(=O)N3C[C@H](O)C[C@H]3C(=O)N[C@@H](CC(C)C)C(=O)N[C@@H](C(C)C)C(=O)N[C@@H](CC(N)=O)C(=O)N3CCC[C@H]3C(=O)N[C@@H](CC(C)C)C(=O)N2)C(=O)CCSC[C@@H](C(N)=O)NC(=O)[C@H](CCCCNC(=N)N)NC(=O)[C@H](Cc2c[nH]c3ccccc23)NC(=O)[C@@H](CC(=O)O)NC(=O)[C@@H]2CCCN2C(=O)[C@H](Cc2cccs2)NC1=O [BCY13922, A[HArg]DCi[HyP]LVNPLCiiL[Thi]P[dD]W[HArg]Ciii] (H-A[hArg]DC[Hyp]LVNPLCL[2Thi]P[dD]W[hArg]C-NH2; linker 4-11-18 via TATA; N-terminus and C-terminus assumed)",1.14 nM
2,"CC(C)C[C@@H]1NC(=O)[C@@H]2CSCCC(=O)N3CN(CN(C3)C(=O)CCSC[C@H](NC(=O)[C@H](CC(=O)O)NC(=O)[C@H](CCCCNC(=N)N)NC(=O)[C@H](C)N)C(=O)N3C[C@H](O)C[C@H]3C(=O)N[C@@H](CC(C)C)C(=O)N[C@@H](C(C)C)C(=O)N[C@@H](CC(N)=O)C(=O)N3CCC[C@H]3C(=O)N[C@@H](CC(C)C)C(=O)N2)C(=O)CCSC[C@@H](C(N)=O)NC(=O)[C@H](CCCCNC(=N)N)NC(=O)[C@H](Cc2c[nH]c3ccccc23)NC(=O)[C@@H](CC(=O)O)NC(=O)[C@@H]2CCCN2C(=O)[C@H](Cc2ccsc2)NC1=O [BCY13923, A[HArg]DCi[HyP]LVNPLCiiL[3Thi]P[dD]W[HArg]Ciii] (H-A[hArg]DC[Hyp]LVNPLCL[3Thi]P[dD]W[hArg]C-NH2; linker 4-11-18 via TATA; N-terminus and C-terminus assumed)",1.32 nM
3,"CC(C)C[C@@H]1NC(=O)[C@@H]2CSCCC(=O)N3CN(CN(C3)C(=O)CCSC[C@H](NC(=O)[C@H](CC(=O)O)NC(=O)[C@H](CCCCNC(=N)N)NC(=O)[C@H](C)N)C(=O)N3C[C@H](O)C[C@H]3C(=O)N[C@@H](CC(C)C)C(=O)N[C@@H](C(C)C)C(=O)N[C@@H](CC(N)=O)C(=O)N3CCC[C@H]3C(=O)N[C@@H](CC(C)C)C(=O)N2)C(=O)CCSC[C@@H](C(N)=O)NC(=O)[C@H](CCCCNC(=N)N)NC(=O)[C@H](Cc2c[nH]c3ccccc23)NC(=O)[C@@H](CC(=O)O)NC(=O)[C@@H]2CCCN2C(=O)[C@H](CC(N)=O)NC1=O [BCY14047, A[HArg]DCi[HyP]LVNPLCiiLNP[dD]W[HArg]Ciii] (H-A[hArg]DC[Hyp]LVNPLCLNP[dD]W[hArg]C-NH2; linker 4-11-18 via TATA; N-terminus and C-terminus assumed)",3.88 nM
4,"CC(C)C[C@@H]1NC(=O)[C@@H]2CSCCC(=O)N3CN(CN(C3)C(=O)CCSC[C@H](NC(=O)[C@H](CC(=O)O)NC(=O)[C@H](CCCCNC(=N)N)NC(=O)[C@H](C)N)C(=O)N3C[C@H](O)C[C@H]3C(=O)N[C@@H](CC(C)C)C(=O)N[C@@H](C(C)C)C(=O)N[C@@H](CC(N)=O)C(=O)N3CCC[C@H]3C(=O)N[C@@H](CC(C)C)C(=O)N2)C(=O)CCSC[C@@H](C(N)=O)NC(=O)[C@H](CCCCNC(=N)N)NC(=O)[C@H](Cc2c[nH]c3ccccc23)NC(=O)[C@@H](CC(=O)O)NC(=O)[C@@H]2CCCN2C(=O)[C@H](CCC(N)=O)NC1=O [BCY14048, A[HArg]DCi[HyP]LVNPLCiiLQP[dD]W[HArg]Ciii] (H-A[hArg]DC[Hyp]LVNPLCLQP[dD]W[hArg]C-NH2; linker 4-11-18 via TATA; N-terminus and C-terminus assumed)",4.1 nM
